Reference: patent US20200040025A1, “URIDINE NUCLEOSIDE DERIVATIVES, COMPOSITIONS AND METHODS OF USE” (Tufts University, priority 2016, published 2020)

target: T1, P2Y6 receptor (Homo sapiens, UniProt Q15077); experiment: Activation of P2Y6 receptor: receptor-induced Ca2+ changes measured with fluo-4; format: cell-based; settings: sodium salts of the test compounds; 1321N1 human astrocytoma cells expressing P2Y6; fluo-4 Ca2+ fluorescence; nonlinear curve fit; read-out: EC50 of synthetic compounds for activation of P2Y6 receptor
T1 construct: expressed in transfected cells; host or cells: 1321N1 human astrocytoma cells
T1 sequence (Q15077 whole entry): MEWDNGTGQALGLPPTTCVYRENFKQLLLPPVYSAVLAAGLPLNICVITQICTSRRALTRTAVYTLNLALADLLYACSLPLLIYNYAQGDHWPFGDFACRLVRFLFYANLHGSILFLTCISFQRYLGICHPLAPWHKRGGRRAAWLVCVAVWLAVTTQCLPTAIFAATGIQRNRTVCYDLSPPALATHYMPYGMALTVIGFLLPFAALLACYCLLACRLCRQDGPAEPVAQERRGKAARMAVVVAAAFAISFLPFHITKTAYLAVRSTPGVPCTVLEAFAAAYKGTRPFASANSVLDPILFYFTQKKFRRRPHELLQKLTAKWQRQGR
Protocol: Synthetic compounds were tested for activation of P2Y6 receptor by measuring receptor induced Ca^2+ changes with the fluorescent Ca^2+ indicator fluo-4. 1321N1 human astrocytoma cell lines either expressing P2Y2, P2Y4 or P2Y6. Receptors were plated into 24-well plates. Two days after plating, fluorometric measurements were made and responses of cells to a serial dilution of the sodium salts of the test compounds were determined. P2Y6 receptor mediated Ca^2+ fluorescent change was determined by normalized accumulation of fluorescent change of 3 timepoints after compound administration subtracted by value from ACSF control. Changes in fluorescent intensity were plotted corresponding to compound concentration in GraphPad.

Row | EC50 [nM] | Structure (SMILES)
1 | < 500 | O=c1ccn([C@@H]2O[C@H](COP(=O)(O)OP(=O)(O)O)C(O)C2O)c(=O)n1Cc1ccc(-c2ccccc2)cn1 (stereo partly drawn) [Compound 29]
2 | 1000 to 2000 | O=c1ccn([C@@H]2O[C@H](COP(=O)(O)OP(=O)(O)O)C(O)C2O)c(=O)n1Cc1cccc(-c2ccccc2)n1 (stereo partly drawn) [Compound 30]
3 | > 2000 | O=c1ccn([C@@H]2O[C@H](COP(=O)(O)OP(=O)(O)O)C(O)C2O)c(=O)n1Cc1ncccc1-c1ccccc1 (stereo partly drawn) [Compound 31]
4 | 1000 to 2000 | O=c1ccn([C@@H]2O[C@H](COP(=O)(O)OP(=O)(O)O)C(O)C2O)c(=O)n1Cc1cc(-c2ccncc2)ccn1 (stereo partly drawn) [Compound 32]
5 | 500 to 1000 | O=c1ccn([C@@H]2O[C@H](COP(=O)(O)OP(=O)(O)O)C(O)C2O)c(=O)n1Cc1cc(-c2ccccn2)ccn1 (stereo partly drawn) [Compound 34]
6 | < 500 | O=c1ccn([C@@H]2O[C@H](COP(=O)(O)OP(=O)(O)O)C(O)C2O)c(=O)n1Cc1cc(Cc2ccccc2)ccn1 (stereo partly drawn) [Compound 35]
7 | < 500 | O=c1ccn([C@@H]2O[C@H](COP(=O)(O)OP(=O)(O)O)C(O)C2O)c(=O)n1Cc1cc(Oc2ccccc2)ccn1 (stereo partly drawn) [Compound 36]
8 | 500 to 1000 | O=c1ccn([C@@H]2O[C@H](COP(=O)(O)OP(=O)(O)O)C(O)C2O)c(=O)n1Cc1cc(Nc2ccccc2)ccn1 (stereo partly drawn) [Compound 37]
9 | 500 to 1000 | O=c1ccn([C@@H]2O[C@H](COP(=O)(O)OP(=O)(O)O)C(O)C2O)c(=O)n1Cc1cc(C2CCCC2)ccn1 (stereo partly drawn) [Compound 38]
10 | 500 to 1000 | O=c1ccn([C@@H]2O[C@H](COP(=O)(O)OP(=O)(O)O)C(O)C2O)c(=O)n1Cc1cc(C2CCCCC2)ccn1 (stereo partly drawn) [Compound 39]
11 | > 2000 | O=c1ccn([C@@H]2O[C@H](COP(=O)(O)OP(=O)(O)O)C(O)C2O)c(=O)n1Cc1cc(N2CCCCC2)ccn1 (stereo partly drawn) [Compound 40]
12 | < 500 | O=c1ccn([C@@H]2O[C@H](COP(=O)(O)OP(=O)(O)O)C(O)C2O)c(=O)n1Cc1cccc(-c2ccccc2)c1 (stereo partly drawn) [Compound 41]
13 | < 500 | O=c1ccn([C@@H]2O[C@H](COP(=O)(O)OP(=O)(O)O)C(O)C2O)c(=O)n1Cc1ccc(-c2ccccc2)s1 (stereo partly drawn) [Compound 42]
14 | < 500 | O=c1ccn([C@@H]2O[C@H](COP(=O)(O)OP(=O)(O)O)C(O)C2O)c(=O)n1Cc1ncc(-c2ccccc2)s1 (stereo partly drawn) [Compound 43]
15 | 1000 to 2000 | O=c1ccn([C@@H]2O[C@H](COP(=O)(O)OP(=O)(O)O)C(O)C2O)c(=O)n1Cc1cnc(-c2ccccc2)s1 (stereo partly drawn) [Compound 44]
16 | < 500 | O=c1ccn([C@@H]2O[C@H](COP(=O)(O)OP(=O)(O)O)C(O)C2O)c(=O)n1Cc1ncc(-c2ccccc2)o1 (stereo partly drawn) [Compound 45]
17 | 500 to 1000 | O=c1ccn([C@@H]2O[C@H](COP(=O)(O)OP(=O)(O)O)C(O)C2O)c(=O)n1Cc1cnc(-c2ccccc2)o1 (stereo partly drawn) [Compound 46]
18 | < 500 | O=c1ccn([C@@H]2O[C@H](COP(=O)(O)OP(=O)(O)O)C(O)C2O)c(=O)n1Cc1ccc(-c2ccccc2)o1 (stereo partly drawn) [Compound 47]
